The values that follow come from patent US20100266589A1, “ADJUVANT CANCER THERAPY” (priority 2009, published 2010).

The test system of this series is patients with resected stages II and III carcinoma of the colon. Description: NSABP C-08 clinical trial: bevacizumab added to mFOLFOX6 as adjuvant therapy. It is filed as in vivo. The text has this:
This example concerns analysis of results obtained from colorectal cancer subjects treated in the National Surgical Adjuvant Breast and Bowel Project (NSABP C-08) clinical trial. The primary aim of the study was to determine the clinical benefit of adding bevacizumab to standard chemotherapy for treating colorectal cancer, as measured by disease-free survival (DFS). A secondary goal was to determine if there was clinical benefit in prolonging overall survival. The standard chemotherapy used in this trial was a combination of leucovorin, 5-fluorouracil and oxaliplatin. This trial evaluated the efficacy of bevacizumab (AVASTIN®) as adjuvant therapy for patients with resected stages II and III carcinoma of the colon.
In the NSABP C-08 trial, the following treatment protocol was used:
Arm A/Group 1: modified FOLFOX6 (mFOLFOX6: oxaliplatin (85 mg/m^2) with concurrent leucovorin (400 mg/m^2) and 5-FU (400 mg/m^2 IV bolus) on Day 1 and 5-FU (2400 mg/m^2) over 46 hours on Day 1 and Day 2) q 14 days for 12 cycles (6 months);
Arm B/Group 2: modified FOLFOX6 q 14 days for 12 cycles (6 months) plus bevacizumab administered before oxaliplatin on Day 1 of each chemotherapy cycle (5 mg/kg IV) q 14 days for 1 year.
The primary endpoint of this trial was duration of disease free survival (DFS). […]
2,710 patients were accrued to the study (1,356 to the contol arm and 1,354 to the experimental arm). 18 patients on the control arm and 20 patients on the experimental arm were not evaluated for efficacy due to no follow-up or positive surgical margins. […]
Time to an event was measured from randomization. All p-values, other than the primary endpoint, were evaluated as significant at the 0.05 level two-sided. […] Hazard ratios (HR) were calculated from Cox models and p-values from time to event were from the log rank test. […] Smooth estimates of the underlying hazard functions were calculated by the method of Muller and Wang (Biometrics 1994 50:61-76). Smooth estimates of the ratio of the underlying hazards were calculated by the method of Gilbert et al. (Biometrics 2002 58:773-80).

In the case of “Bevacizumab: recombinant humanized anti-VEGF monoclonal antibody; human IgG1 framework with CDRs from murine antibody A.4.6.1”, the HR (DFS, 1.25 years after initiation of treatment, vs mFOLFOX6 alone, 95% CI 0.48-0.78, p <0.0001) was 0.61. Where the note is “added to chemotherapy vs chemotherapy alone”, the “toxicities or adverse effects (in words)” value is on record as “not associated with any increased toxicities or adverse effects”. Also, the “effect on DFS (in words)” value (added to chemotherapy vs chemotherapy alone, during the first year (active treatment phase)) was “significantly increased DFS”.
